Experimental data from patent US11731933B2, “Device and method for the desalination of water by means of thermal deionisation and liquid-phase ion extraction liquid” (ADIONICS, priority 2015, dated 2023).
Values after ≈ are worked out from the molar mass of the structure shown. Values joined by “and” are separate entries in the source; they are usually repeats but may differ in a detail not shown here. Equal values may be shown once. Read-outs that look alike come from different tables or passages of the source.

Tests used:
[1] = Solubility in water (UV-visible spectrometry); assay type: physicochemical; settings: for solubility: water
Description: The hydrophobicity or solubility of a compound can be measured by standard methods and in particular by UV-visible spectrometry.

[2] = NaCl extraction from 0.2M NaCl water by ASM/CEM composition, ion chromatography of treated water; settings: ASM: 3TFMPhOH; CEM 0.2M; NaCl 0.2M water
Procedure: To 3 mL of 3-(trifluoromethyl)phenol, was added 217 mg of Dibenzo-18-crown-6 in order to obtain a formulation with 0.2 mole/L of DB18C6. This sealed formulation was then orbitally stirred at 500 rpm overnight after 1 mL of distilled water was added twice to allow water saturation of the whole.
The next morning, an aqueous 0.2 mol/L NaCl solution was prepared from twice distilled water, while the formulation that was stirred overnight was allowed to stand for decantation. A clear decantation of the two colorless phases is obtained in a few minutes. 3 mL of the organic extraction solution is then removed and transferred to a flask containing 3 mL of this salt water containing 0.2 M NaCl, then the flask is sealed and orbitally stirred (usually 500 rpm), for 3 hours and at room temperature. It is verified that droplets of the order of 1-2 mm are present in quantity at the selected stirring speed (400 to 900 rpm).
After stirring for 2 hours, stirring is stopped and the whole is left to stand for decantation for at least 10 minutes until the two phases are completely separated. The upper aqueous phase is then removed and then stirred and diluted for analysis of its salinity by a Metrohm Ion Chromatography Incorporating a suitable cation analysis column and a suitable anion analysis column. Similarly, the initial aqueous solution of 0.2M NaCl is also analyzed by this ion chromatography equipment to determine its relative concentration of sodium and chlorides. […]

[3] = methanol, published complexing constants, cited from earlier work
[4] = NaCl extraction from 0.3M NaCl water by ASMC7 at four concentrations + Calix[4]Est in chloroform (Example 12)
Procedure: Four extraction compositions were obtained by solubilizing a constant amount of 4-tert-butylCalix[4]arene tetraethylEster (CAS No. 97600-39-0) and four increasing amounts of ASMC7 in chloroform CHCl3 to obtain four final concentrations after solubilization of CEM and ASM, from 0.34 to 0.36 mol/L for Calix[4]Est and 0.36 mol/L, 0.71 mol/L, 1.09 mol/L and 1.49 mol/L for ASMC7, respectively. These four sealed formulations were then orbitally stirred at 500 rpm for 2 hours after adding an equivalent volume of twice distilled water to allow water saturation of the entire formulation and control of pH at the output (pH=7). The extraction composition is then put to stand for settling. All the compositions tested are stable and rapidly decanted (a few minutes at the most).
An 0.3 mol/L NaCl aqueous solution was prepared from twice distilled water.
3 ml of each organic extraction composition are then removed in the lower phase of the settled two-phase mixture and transferred to four vials, each containing 3 ml of the salt water at 0.3M NaCl, then the flasks are sealed and orbitally stirred (at 500 revolutions per minute), for 2 hours at room temperature (RT), that is to say between 20 and 25° C. In the case of extraction at 60° C., a magnetic stirring (at 500 revolutions per minute), for 2 hours, is carried out with indirect heating in a metal mold on a heating plate. It is verified that droplets of the order of 1-2 mm are present during these agitations in order to be certain to reach equilibrium in the NaCl distribution between the two liquid phases at the end of stirring. The appearance of the organic and aqueous phases is clear and colorless for these 4 formulations tested.
After stirring for 2 hours, stirring is stopped and the solution is put to stand for settling within 10 minutes, at least until the two phases have completely separated off, at the test temperature. Then, the four upper aqueous phases are separately taken and then stirred and diluted for analysis of their salinity by a Metrohm Ion Chromatograph incorporating a suitable cation analysis column and a suitable anion analysis column. Similarly, the initial aqueous solution of 0.3M NaCl is also analyzed by this ion chromatograph to determine its relative molar concentration of sodium and chlorides. All extractions and analyzes were duplicated.

[5] = NaCl extraction from 0.4M NaCl water by ASM + Calix[4]Est in chloroform (Example 11); settings: for Mol % Cl- extracted from the water to be treated / Mol % Na+ extracted from the water to be treated: CEM 0.3 Mol/L, ASM 0.3 Mol/L in CHCl3, 0.4 M NaCl
Procedure: The extraction composition is obtained by solubilizing an amount of 4-tert-butyl Calix[4]arene tetraethyl Ester (CAS No. 97600-39-0) and ASM in chloroform CHCl3 to obtain a final concentration after solubilization of the CEM and ASM of 0.3 mol/L for Calix[4]Est and of 0.3 mol/L for ASM, respectively. These sealed formulations were then orbitally stirred at 500 rpm for 2 hours after adding an equivalent volume of twice distilled water to allow water saturation of the entire formulation and control of pH output (pH=7). The extraction composition is then put to stand to settle. All the compositions tested are stable and rapidly decanted (a few minutes at the most).
A 0.4 mol/L NaCl aqueous solution was prepared from twice distilled water.
The organic extraction composition is then slightly heated to promote solubilization of the compounds by hot air gun (temperature of about 50 to 60° C.) for a few seconds (10 to 30 seconds) until a clear solution is obtained.
3 mL of the organic extraction composition is then removed from the lower phase of the settled two-phase mixture and transferred to a vial containing 3 mL of salt water at 0.4 M NaCl and then the flask is sealed and orbitally stirred (at 500 revolutions per minute), for 2 hours at room temperature (RT), that is to say between 20 and 25° C. In the case of extraction at 60° C., magnetic stirring (at 500 revolutions per minute), for 2 hours, is carried out with indirect heating in a metal mold on a heating plate. It is verified that droplets of the order of 1-2 mm are present during these agitations in order to be certain to achieve equilibrium in the NaCl distribution between the two liquid phases at the end of stirring. The appearance of the organic and aqueous phases is clear and colorless or slightly cloudy.
After stirring for 2 hours, stirring is stopped and the solution is put to stand to settle within 10 minutes, at least until the two phases have completely separated off, at the temperature of the test. The upper aqueous phase is then removed and then stirred and diluted for analysis of its salinity by a Metrohm Ion Chromatograph incorporating a suitable cation analysis column and a suitable anion analysis column. Similarly, the initial aqueous solution of NaCl at 0.4M is also analyzed by this ion chromatograph to determine its relative molar concentration in sodium and in chlorides. AN extractions and analyzes were duplicated.

[6] = 60° C., CEM 0.341, ASMC7 0.708 Mol/L, ratio 2.08
[7] = 60° C., CEM 0.345, ASMC7 0.358 Mol/L, ratio 1.04
[8] = 60° C., CEM 0.349, ASMC7 1.088 Mol/L, ratio 3.12
[9] = 60° C., CEM 0.358, ASMC7 1.488 Mol/L, ratio 4.16
[10] = RT, CEM 0.341, ASMC7 0.708 Mol/L, ratio 2.08
[11] = RT, CEM 0.345, ASMC7 0.358 Mol/L, ratio 1.04
[12] = RT, CEM 0.349, ASMC7 1.088 Mol/L, ratio 3.12
[13] = RT, CEM 0.358, ASMC7 1.488 Mol/L, ratio 4.16

Compound: CC(O)c1cccc(C(F)(F)C(F)(F)C(F)(F)F)c1 (centres unmarked)
- solubility [1]: 420 µM (≈ 122 µg/mL)

Compound: CCCC(O)c1cc(C(F)(F)F)cc(C(F)(F)F)c1 (centres unmarked)
- solubility ([1]; read-out: Solubility in water): 480 µM (≈ 137 µg/mL)

Compound: OC(c1cccc(C(F)(F)F)c1)c1cccc(C(F)(F)F)c1
- solubility ([1]; read-out: Solubility in water): 70 µM (≈ 22.4 µg/mL)

Compound: 4-tert-Butylcalix[4]arene-O,O′,O″,O′′′- tetraacetic Acid Tetraethyl Ester [Calix[4]Est]
- Solubility in water [1]: < 1.10^−6 mMole/L
- Extraction rate at 23° C., Cl− [2]: 77%
- Extraction rate at 23° C., Na+ [2]: 75%
- Extraction rate at 23° C., mean NaCl [2]: 76%
- Log K(Na+, MeOH, 25° C.) ([3]; listed as Calix4Est): 5.0-5.7
- Log K(Na+, MeOH, 25° C.) [3]: 5.0

Compound: CCCCCCCC(=O)Nc1cc(C(F)(F)F)cc(C(F)(F)F)c1 [ASMC7, N-[3,5-bis(trifluoromethyl)phenyl]octanamide]
- Mol % of Cl− extracted from water to be treated [4, 6]: 26.6% and 27.4%
- Mol % of Na+ extracted from water to be treated [4, 6]: 28.1% and 28.2%
- Mol % of Cl− extracted from water to be treated [4, 7]: 13.0% and 14.1%
- Mol % of Na+ extracted from water to be treated [4, 7]: 9.9% and 13.1%
- Mol % of Cl− extracted from water to be treated [4, 8]: 31.0% and 30.4%
- Mol % of Na+ extracted from water to be treated [4, 8]: 37.7% and 39.5%
- Mol % of Cl− extracted from water to be treated [4, 9]: 45.6% and 39.9%
- Mol % of Na+ extracted from water to be treated [4, 9]: 48.4% and 46.9%
- Mol % of Cl− extracted from water to be treated [4, 10]: 44.4%
- Mol % of Na+ extracted from water to be treated [4, 10]: 44.2% and 45.1%
- Mol % of Cl− extracted from water to be treated [4, 11]: 27.9% and 27.2%
- Mol % of Na+ extracted from water to be treated [4, 11]: 27.9% and 21.7%
- Mol % of Cl− extracted from water to be treated [4, 12]: 51.2% and 52.9%
- Mol % of Na+ extracted from water to be treated [4, 12]: 60.0% and 59.8%
- Mol % of Cl− extracted from water to be treated [4, 13]: 64.6% and 65.6%
- Mol % of Na+ extracted from water to be treated [4, 13]: 71.2% and 65.0%
- Δ % ext ([4]; [ASMC7]/[CEM] 1.04): 13.6%
- NaCl - 20° C. % ext (average) ([4]; [ASMC7]/[CEM] 1.04): 26.2%
- NaCl - 60° C. % ext (average) ([4]; [ASMC7]/[CEM] 1.04, 60° C.): 12.5%
- Δ % ext ([4]; [ASMC7]/[CEM] 2.08): 16.9%
- NaCl - 20° C. % ext (average) ([4]; [ASMC7]/[CEM] 2.08): 44.5%
- NaCl - 60° C. % ext (average) ([4]; [ASMC7]/[CEM] 2.08, 60° C.): 27.6%
- Δ % ext ([4]; [ASMC7]/[CEM] 3.12): 21.3%
- NaCl - 20° C. % ext (average) ([4]; [ASMC7]/[CEM] 3.12): 55.9%
- NaCl - 60° C. % ext (average) ([4]; [ASMC7]/[CEM] 3.12, 60° C.): 34.5%
- Δ % ext ([4]; [ASMC7]/[CEM] 4.16): 21.4%
- NaCl - 20° C. % ext (average) ([4]; [ASMC7]/[CEM] 4.16): 66.6%
- NaCl - 60° C. % ext (average) ([4]; [ASMC7]/[CEM] 4.16, 60° C.): 45.1%
- NaCl - 20° C. % ext (average) ([5]; 20° C., average molar extraction): 24.6%
- Mol % Cl- extracted from the water to be treated ([5]; 60° C.): 7.6% and 7.3%
- Mol % Na+ extracted from the water to be treated ([5]; 60° C.): 5.5% and 5.4%
- NaCl - 60° C. % ext (average) ([5]; 60° C., average molar extraction): 6.3%
- Mol % Cl- extracted from the water to be treated ([5]; RT): 26.3% and 25.9%
- Mol % Na+ extracted from the water to be treated ([5]; RT): 23.6% and 22.8%
- Δ % ext ([5]; difference 20° C. minus 60° C.): 18.4%
